According to publication PMC3946003, “Protein kinase inhibitor SU6668 attenuates positive regulation of Gli proteins in cancer and multipotent progenitor cells” (Biochimica et Biophysica Acta, 2014):

What was measured:
[1] = target: T1, ULK3 (Homo sapiens, UniProt Q6PHR2)
T1 sequence (Q6PHR2 1-472): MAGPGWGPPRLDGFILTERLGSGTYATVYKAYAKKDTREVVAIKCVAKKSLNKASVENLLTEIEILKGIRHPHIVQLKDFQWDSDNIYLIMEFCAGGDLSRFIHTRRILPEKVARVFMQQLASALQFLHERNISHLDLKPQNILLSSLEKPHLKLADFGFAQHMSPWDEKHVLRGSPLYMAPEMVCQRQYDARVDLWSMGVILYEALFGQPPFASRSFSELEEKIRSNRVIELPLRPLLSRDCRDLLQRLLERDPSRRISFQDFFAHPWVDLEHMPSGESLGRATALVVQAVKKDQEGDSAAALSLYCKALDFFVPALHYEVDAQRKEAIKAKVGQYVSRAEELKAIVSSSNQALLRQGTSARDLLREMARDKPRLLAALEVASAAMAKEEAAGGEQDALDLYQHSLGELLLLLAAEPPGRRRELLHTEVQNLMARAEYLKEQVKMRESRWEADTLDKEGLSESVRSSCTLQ

[2] = target: T1, ULK3; experiment: in vitro kinase assay (ULK3 autophosphorylation, […] ATP); Ki calculated from IC50 […]; type: biochemical; set-up: bacterially expressed and purified His-tagged ULK3 protein

**Q.** With `Nc1ncnc2c1ncn2[C@@H]1O[C@H](COP(=O)(O)OP(=O)(O)OP(=O)(O)O)[C@@H](O)[C@H]1O` [ATP] as the molecule, how does the Km [1] read?
**A.** The Km was 3.2 µM.

**Q.** Which Ki [2] does the source give for `Cc1[nH]c(/C=C2\C(=O)Nc3ccccc32)c(C)c1CCC(=O)O` [SU6668, (Z)-5-[(1,2-dihydro-2-oxo-3H-indol-3-ylidene)methyl]-2,4-dimethyl-1H-pyrrole-3-propanoic acid] here?
**A.** Its Ki is roughly 200 nM.
